Results as given in ChEMBL document CHEMBL3508140 (2016).

Key:
[1] = Terminal half-life of daunorubicin following intravenous daunorubicin at 1.2 mg.Kg-1 dose in dog; assay type: ADME, organism-based, Canis lupus familiaris; design: dose 1.2 mg.Kg-1, dosed compound id 2.46809e+06, dosed compound name Daunorubicin, route intravenous; settings: Beagle, plasma
[2] = Plasma clearance of daunorubicin following intravenous daunorubicin at 1.2 mg.Kg-1 dose in dog; assay type: ADME, organism-based, Canis lupus familiaris; design: dose 1.2 mg.Kg-1, dosed compound id 2.46809e+06, dosed compound name Daunorubicin, route intravenous; settings: Beagle, read-out: Clp
[3] = Volume of distribution of daunorubicin following intravenous daunorubicin at 1.2 mg.Kg-1 dose in dog; assay type: ADME, organism-based, Canis lupus familiaris; design: dose 1.2 mg.Kg-1, dosed compound id 2.46809e+06, dosed compound name Daunorubicin, route intravenous; settings: Beagle, plasma
Rattus norvegicus [4] = species on record: Rattus norvegicus; assay: Binding of 14C-epirubicin at 0.048 ug-ml-1 concentration to plasma protein of rat; assay type: organism-based; design: conc 0.048 ug.ml-1, dosed compound id 2.46808e+06, dosed compound name, sampling time 24 h; settings: SD, at 0.048 µg/mL
Canis lupus familiaris [5] = species on record: Canis lupus familiaris; assay: Binding of 14C-epirubicin at 500 ng.ml-1 concentration to plasma protein of dog; assay type: cell-free; settings: Beagle
Rattus norvegicus [6] = species on record: Rattus norvegicus; assay: Binding of 14C-epirubicin at 20 ng.ml-1 concentration to plasma protein of rat; assay type: cell-free; settings: SD
Rattus norvegicus [7] = species on record: Rattus norvegicus; assay: Binding of 14C-epirubicin at 100 ng.ml-1 concentration to plasma protein of rat; assay type: cell-free; settings: SD
Rattus norvegicus [8] = species on record: Rattus norvegicus; assay: Binding of 14C-epirubicin at 0.164 ug-ml-1 concentration to plasma protein of rat; assay type: organism-based; design: conc 0.164 ug.ml-1, dosed compound id 2.46808e+06, dosed compound name, sampling time 30 min; settings: SD, at 0.164 µg/mL
Mus musculus [9] = species on record: Mus musculus; assay: Binding of 14C-epirubicin at 20 ng.ml-1 concentration to plasma protein of mouse; assay type: cell-free; settings: CD-1
Oryctolagus cuniculus [10] = species on record: Oryctolagus cuniculus; assay: Binding of 14C-epirubicin at 500 ng.ml-1 concentration to plasma protein of rabbit; assay type: cell-free; settings: New Zealand White
Homo sapiens [11] = species on record: Homo sapiens; assay: Binding of epirubicin to plasma protein of human; assay type: cell-free
Rattus norvegicus [12] = species on record: Rattus norvegicus; assay: Binding of 14C-epirubicin at 500 ng.ml-1 concentration to plasma protein of rat; assay type: cell-free; settings: SD
Canis lupus familiaris [13] = species on record: Canis lupus familiaris; assay: Binding of 14C-epirubicin at 1000 ng.ml-1 concentration to plasma protein of dog; assay type: cell-free; settings: Beagle
Homo sapiens [14] = species on record: Homo sapiens; assay: Binding of epirubicin at 20-1000 ng.ml-1 concentration to plasma protein of human; assay type: cell-free
Oryctolagus cuniculus [15] = species on record: Oryctolagus cuniculus; assay: Binding of 14C-epirubicin at 1000 ng.ml-1 concentration to plasma protein of rabbit; assay type: cell-free; settings: New Zealand White
Homo sapiens [16] = species on record: Homo sapiens; assay: Binding of 14C-epirubicin at 1000 ng.ml-1 concentration to plasma protein of man; assay type: cell-free; design: gender
Rattus norvegicus [17] = species on record: Rattus norvegicus; assay: Binding of 14C-epirubicin at 0.056 ug-ml-1 concentration to plasma protein of rat; assay type: cell-free; design: conc 0.056 ug.ml-1; settings: SD, at 0.056 µg/mL
Oryctolagus cuniculus [18] = species on record: Oryctolagus cuniculus; assay: Binding of 14C-epirubicin at 100 ng.ml-1 concentration to plasma protein of rabbit; assay type: cell-free; settings: New Zealand White
Rattus norvegicus [19] = species on record: Rattus norvegicus; assay: Binding of 14C-epirubicin at 0.223 ug-ml-1 concentration to plasma protein of rat; assay type: cell-free; design: conc 0.223 ug.ml-1; settings: SD, at 0.223 µg/mL
Mus musculus [20] = species on record: Mus musculus; assay: Binding of 14C-epirubicin at 1000 ng.ml-1 concentration to plasma protein of mouse; assay type: cell-free; settings: CD-1
Mus musculus [21] = species on record: Mus musculus; assay: Binding of 14C-epirubicin at 500 ng.ml-1 concentration to plasma protein of mouse; assay type: cell-free; settings: CD-1
Rattus norvegicus [22] = species on record: Rattus norvegicus; assay: Binding of 14C-epirubicin at 1.081 ug-ml-1 concentration to plasma protein of rat; assay type: cell-free; design: conc 1.081 ug.ml-1; settings: SD, at 1.081 µg/mL
Rattus norvegicus [23] = species on record: Rattus norvegicus; assay: Binding of 14C-epirubicin at 1000 ng.ml-1 concentration to plasma protein of rat; assay type: cell-free; settings: SD
Rattus norvegicus [24] = species on record: Rattus norvegicus; assay: Binding of 14C-epirubicin at 0.077 ug-ml-1 concentration to plasma protein of rat; assay type: organism-based; design: conc 0.077 ug.ml-1, dosed compound id 2.46808e+06, dosed compound name, sampling time 6 h; settings: SD, at 0.077 µg/mL
Canis lupus familiaris [25] = species on record: Canis lupus familiaris; assay: Binding of 14C-epirubicin at 100 ng.ml-1 concentration to plasma protein of dog; assay type: cell-free; settings: Beagle
Homo sapiens [26] = species on record: Homo sapiens; assay: Binding of 14C-epirubicin at 100 ng.ml-1 concentration to plasma protein of man; assay type: cell-free; design: gender
Canis lupus familiaris [27] = species on record: Canis lupus familiaris; assay: Binding of 14C-epirubicin at 20 ng.ml-1 concentration to plasma protein of dog; assay type: cell-free; settings: Beagle
Oryctolagus cuniculus [28] = species on record: Oryctolagus cuniculus; assay: Binding of 14C-epirubicin at 20 ng.ml-1 concentration to plasma protein of rabbit; assay type: cell-free; settings: New Zealand White
Mus musculus [29] = species on record: Mus musculus; assay: Binding of 14C-epirubicin at 100 ng.ml-1 concentration to plasma protein of mouse; assay type: cell-free; settings: CD-1
Homo sapiens [30] = species on record: Homo sapiens; assay: Binding of 14C-epirubicin at 500 ng.ml-1 concentration to plasma protein of man; assay type: cell-free; design: gender
[31] = Recovery of doxorubicinol following intraperitoneal epirubicin at 4 mg.Kg-1 dose in hamster; assay type: ADME, organism-based, Cricetulus griseus, Plasma; settings: chinese hamster, in vivo, ip
[32] = Recovery of doxorubicinol following intravenous epirubicin at 4 mg.Kg-1 dose in rat; assay type: ADME, organism-based, SD, Plasma; settings: in vivo
[33] = Detection of doxorubicinol in tumor following single intravenous doxorubicin at 10 mg.Kg-1 dose in female mouse bearing colon tumor; assay type: ADME, organism-based, BALB/c, Neoplasm; design: dose 10 mg.Kg-1, dosed compound id 2.46809e+06, dosed compound name Doxorubicin, gender F, regimen Single, route intravenous, sampling time 48 h; settings: in vivo
[34] = AUC values (0-48 h) of doxorubicinol in heart following single intravenous doxorubicin at 10 mg.Kg-1 dose in female mouse bearing colon tumor; assay type: ADME, organism-based, BALB/c; design: time < 48 hr, dose 10 mg.Kg-1, dosed compound id 2.46809e+06, dosed compound name Doxorubicin, gender F, regimen Single, route intravenous, sampling time 48 h; settings: in vivo
[35] = (§1) Urinary elimination of adriamycinol following intravenous bolus adriamycin at 10 mg.Kg-1 dose in rat; assay type: ADME, organism-based, SD, Urine; design: dose 10 mg.Kg-1, dosed compound id 2.46809e+06, dosed compound name Doxorubicin, route intravenous, sampling time 0-6 h; settings: in vivo
[36] = Recovery of doxorubicinol following intraperitoneal epirubicin at 4 mg.Kg-1 dose in mouse; assay type: ADME, organism-based, CD-1, Plasma; settings: in vivo, ip
[37] = Detection of doxorubicinol in heart following single intravenous doxorubicin at 10 mg.Kg-1 dose in female mouse bearing colon tumor; assay type: ADME, organism-based, BALB/c; design: dose 10 mg.Kg-1, dosed compound id 2.46809e+06, dosed compound name Doxorubicin, gender F, regimen Single, route intravenous, sampling time 48 h; settings: in vivo
[38] = AUC values (0-48 h) of doxorubicinol in plasma following single intravenous doxorubicin at 10 mg.Kg-1 dose in female mouse bearing colon tumor; assay type: ADME, organism-based, BALB/c; design: time < 48 hr, dose 10 mg.Kg-1, dosed compound id 2.46809e+06, dosed compound name Doxorubicin, gender F, regimen Single, route intravenous, sampling time 48 h; settings: in vivo
[39] = Recovery of doxorubicinol following intravenous epirubicin at 1.5 mg.Kg-1 dose in man; assay type: ADME, organism-based, Plasma; settings: human, in vivo
[40] = Terminal half-life of doxorubicinol following intravenous doxorubicinol at 1.27 mg.Kg-1 dose in dog; assay type: ADME, organism-based, Canis lupus familiaris, Beagle, Plasma; design: dose 1.27 mg.Kg-1, dosed compound id 2.4681e+06, dosed compound name Doxorubicinol, route intravenous; settings: in vivo
[41] = AUC values (0-48 h) of doxorubicinol in tumor following single intravenous doxorubicin at 10 mg.Kg-1 dose in female mouse bearing colon tumor; assay type: ADME, organism-based, BALB/c, Neoplasm; design: time < 48 hr, dose 10 mg.Kg-1, dosed compound id 2.46809e+06, dosed compound name Doxorubicin, gender F, regimen Single, route intravenous, sampling time 48 h; settings: in vivo
[42] = as §1; assay type: ADME, organism-based, SD, Urine; design: dose 10 mg.Kg-1, dosed compound id 2.46809e+06, dosed compound name Doxorubicin, route intravenous, sampling time 0-24 h; settings: in vivo
[43] = Detection of doxorubicinol in plasma following single intravenous doxorubicin at 10 mg.Kg-1 dose in female mouse bearing colon tumor; assay type: ADME, organism-based, BALB/c; design: dose 10 mg.Kg-1, dosed compound id 2.46809e+06, dosed compound name Doxorubicin, gender F, regimen Single, route intravenous, sampling time 48 h; settings: in vivo
[44] = Recovery of doxorubicinol following intravenous epirubicin at 4 mg.Kg-1 dose in rabbit; assay type: ADME, organism-based, Oryctolagus cuniculus, New Zealand White, Plasma; settings: in vivo
[45] = as §1; assay type: ADME, organism-based, SD, Urine; design: dose 10 mg.Kg-1, dosed compound id 2.46809e+06, dosed compound name Doxorubicin, route intravenous, sampling time 0-60 h; settings: in vivo

## COc1cccc2c1C(=O)c1c(O)c3c(c(O)c1C2=O)C[C@@](O)(C(C)=O)C[C@@H]3O[C@H]1C[C@H](N)[C@H](O)[C@H](C)O1 [DAUNORUBICIN]
[1]
  half-life: 5.3 min
[2]
  clearance: 2030 mL/min
[3]
  Vd: 51 L/kg

## COc1cccc2c1C(=O)c1c(O)c3c(c(O)c1C2=O)C[C@@](O)(C(=O)CO)C[C@@H]3O[C@H]1C[C@H](N)[C@@H](O)[C@H](C)O1
Rattus norvegicus [4]
  PPB: 88.2%
Canis lupus familiaris [5]
  PPB: 80.7%
Rattus norvegicus [6]
  PPB: 79.1%
Rattus norvegicus [7]
  PPB: 82.8%
Rattus norvegicus [8]
  PPB: 80.7%
Mus musculus [9]
  PPB: 76.5%
Oryctolagus cuniculus [10]
  PPB: 78.4%
Homo sapiens [11]
  PPB: 75%
Rattus norvegicus [12]
  PPB: 81.3%
Canis lupus familiaris [13]
  PPB: 80.9%
Homo sapiens [14]
  PPB: 77%
Oryctolagus cuniculus [15]
  PPB: 77.1%
Homo sapiens [16]
  PPB: 76.8%
Rattus norvegicus [17]
  PPB: 81.7%
Oryctolagus cuniculus [18]
  PPB: 70.2%
Rattus norvegicus [19]
  PPB: 81%
Mus musculus [20]
  PPB: 80.3%
Mus musculus [21]
  PPB: 80%
Rattus norvegicus [22]
  PPB: 82.2%
Rattus norvegicus [23]
  PPB: 78.7%
Rattus norvegicus [24]
  PPB: 85.6%
Canis lupus familiaris [25]
  PPB: 81.2%
Homo sapiens [26]
  PPB: 78.1%
Canis lupus familiaris [27]
  PPB: 80.3%
Oryctolagus cuniculus [28]
  PPB: 78.5%
Mus musculus [29]
  PPB: 79.9%
Homo sapiens [30]
  PPB: 77.3%

## COc1cccc2c1C(=O)c1c(O)c3c(c(O)c1C2=O)C[C@@](O)(C(O)CO)C[C@@H]3O[C@H]1C[C@H](N)[C@H](O)[C@H](C)O1 (stereo not given in full)
[31]
  Compound recovery: 0.1 10^-9M
[32]
  Compound recovery: 0.6 10^-9M
[33]
  Compound recovery: OUTCOME = Not detected/not observed
[34]
  AUC: 228 nmol·min/g
[35]
  Compound recovery: 0.22%
[36]
  Compound recovery: 0 10^-9M
[37]
  Compound recovery: OUTCOME = Observed
[38]
  AUC: 1.7 nmol·min/mL
[39]
  Compound recovery: 1 10^-9M
[40]
  t1/2: VALUE = Shorter than doxorubicin
[41]
  AUC: 0 nmol·min/g
[42]
  Compound recovery: 0.26%
[43]
  Compound recovery: OUTCOME = Observed
[44]
  Compound recovery: 0.3 10^-9M
[45]
  Compound recovery: 0.3%
